This is an account of results in US9809602B2, “Compounds for treating viral infections” (INSTITUT PASTEUR KOREA, priority 2014, dated 2017).

For one experiment, the system named is genotype 1/2 chimeric cell culture derived HCV (HCVcc). In words: Genotype 1/2 chimeric HCVcc assay (nano-luciferase, HCV replication). It counts as cell-based. The following applies: Anti-HCVcc genotype 1/2 activity; Huh-7.5 cells, 72 h post infection, nano-luciferase. On the procedure:
Naïve Huh-7.5 target cells were plated at 2400 cells/well in 25 μL of culture media in 384-well plates (Greiner bio-one, μ clear black). After overnight incubation, compounds serially diluted in 10 μL of cell culture media were added. After 2 h compound treatment, cells were inoculated with 40 μL of genotype 1/2 chimeric cell culture derived HCV (HCVcc) which express structural proteins of an HCV genotype 1a isolate (TN accession number EF621489) and non-structural proteins of HCV genotype 2a (JFH-1) with nano-luciferase reporter. At 72 h post infection, nano-luciferase activity (Nano-Glo™, Promega) and cellular ATP (Cell titer-Glo™, Promega) were measured as a marker for HCV replication and cytotoxicity, respectively. EC50 and CC50 were calculated by non-linear regression analyzing using GraphPad Prism (GraphPad Software).
As usually defined, the EC50 is the concentration that produces a half-maximal response. High values mean weaker potency, low ones greater potency. `CCOC(=O)c1c(NC(=O)NCc2c(C(F)(F)F)sc3c2CCN(C(=O)[C@H](C)N)C3)sc2c1CCCC2` [Compound 328] came in with an EC50 of less than 100 nM.

Still in this experiment, the particulars now being: Hepatitis C virus.
In turn, `O=C(c1ccc(C2CCCCC2)cc1)N1CCC(N2CCCCC2)CC1` [Compound 1007] gave an EC50 of 1000 to 10000 nM.

With `CC(=O)Nc1ccc(-c2ccc(C(=O)NCCCN3CCC(N4CCCCC4)CC3)cc2)cc1` [Compound 1140], the EC50 is more than 10000 nM.

The compound `O=C(NCCCN1CCC(N2CCCCC2)CC1)c1ccc(-c2ccc(F)cc2)cc1` [Compound 1020] yielded an EC50 of 100 to 1000 nM.

The compound `O=C(CCCN1CCC(N2CCCCC2)CC1)Nc1ccc(-c2ccc(C(F)(F)F)cc2)c(F)c1` [Compound 1113] came in with an EC50 of 100 to 1000 nM.

As to `N#Cc1cc(NC(=O)CCCN2CCC(N3CCCCC3)CC2)ccc1-c1ccc(C(F)(F)F)cc1` [Compound 1159], the concentration for a half-maximal effect (EC50) lay within 100 to 1000 nM.

Compound `O=S(=O)(NCCCN1CCC(N2CCCCC2)CC1)c1ccc(Oc2ccc(C(F)(F)F)cc2)cc1` [Compound 1094] registered an EC50 of 100 to 1000 nM.

`O=C(NCCCN1CCC(N2CCCCC2)CC1)c1ccc(-c2ccc(C(F)(F)F)cc2)c(C(F)(F)F)c1` [Compound 1105] displayed an EC50 of 100 to 1000 nM.

Take `O=C(NCCCN1CCC(N2CCCCC2)CC1)c1ccc(Oc2ccc(F)cc2)cc1` [Compound 1033]: the EC50 fell in the range of 1000 to 10000 nM.

In turn, `O=C(NCCCN1CCC(N2CCCCC2)CC1)c1ccc(Oc2ccccc2)cc1` [Compound 1013] gave an EC50 of 100 to 1000 nM.

Regarding `COc1cccc(-c2ccc(C(=O)NCCCN3CCC(N4CCCCC4)CC3)cc2)c1` [Compound 1018], the EC50 fell in the range of 100 to 1000 nM.

Regarding `O=C(NCCCN1CCC(N2CCCCC2)CC1)c1ccc(Oc2ccccc2F)cc1` [Compound 1061], the EC50 lay within 1000 to 10000 nM.

`O=C(NCCCN1CCN(C2CCCCC2)CC1)c1ccc(Oc2ccccc2)cc1` [Compound 1037] yielded an EC50 of more than 10000 nM.

`O=C(NCCCN1CCC(N2CCCCC2)C1)c1ccc(Oc2ccccc2)cc1` (centres unmarked) [Compound 1084] returned an EC50 of more than 10000 nM.

Staying with this experiment, now noted: Hepatitis C virus, Huh7.5, 72 h.
Compound `CC1CCCc2sc(NC(=O)NCc3c(C(F)(F)F)sc4c3CCNC4)c(C(=O)OC(C)(C)C)c21` (centres unmarked) [Compound 265] had a half-maximal effective concentration (EC50) of less than 100 nM.

As for `CC(C)(C)OC(=O)c1c(NC(=O)NCc2c(-n3cccc3)sc3c2CCN(CCC(F)(F)F)C3)sc2c1CCCC2` [Compound 241], the EC50 is less than 100 nM.

Take `CC(C)(C)OC(=O)c1c(NC(=O)NCc2c(-n3cccc3)sc3c2CCN(CC(F)(F)F)C3)sc2c1CCCC2` [Compound 240]: the EC50 is less than 100 nM.

`CC(C)(C)OC(=O)c1c(NC(=O)NCc2c(-c3ccc(F)cc3Cl)sc3c2CCNC3)sc2c1CCCC2` [Compound 286] returned an EC50 of 100 to 1000 nM.

`CCN1CCc2c(sc(-n3cccc3)c2CNC(=O)Nc2sc3c(c2C(=O)OC(C)C)CCCC3)C1` [Compound 157] yielded an EC50 of less than 100 nM.

`CCN1CCc2c(sc(C(F)(F)F)c2CNC(=O)Nc2sc3c(c2C(=O)OC(C)(C)C)CCC3)C1` [Compound 254] yielded a concentration for a half-maximal effect (EC50) of less than 100 nM.

`Cc1sc(NC(=O)C(=O)NCc2c(C(F)(F)F)sc3c2CCNC3)c(C(=O)OC(C)(C)C)c1C` [Compound 360]: the EC50 was in the range of 100 to 1000 nM.

In turn, `CC(C)OC(=O)c1c(NC(=O)NCc2c(Br)sc3c2CC[N+](C)(C)C3)sc2c1CCCC2` [Compound 173] yielded an EC50 of less than 100 nM.

The compound `CC(C)(C)OC(=O)c1c(NC(=O)NCc2c(-c3cccc(O)c3)sc3c2CCNC3)sc2c1CCCC2` [Compound 252] registered an EC50 of 100 to 1000 nM.

For `CCOC(=O)c1c(NC(=O)NCc2c(N3C(=O)CCC3=O)sc3c2CCN(CC)C3)sc2c1CCCC2` [Compound 31], the EC50 lay in the range of 100 to 1000 nM.

On to `CCOC(=O)c1c(NC(=O)NCc2c(Br)sc3c2CCNC3)sc2c1CC(C)CC2` (centres unmarked) [Compound 193], for which the EC50 was less than 100 nM.

In the case of `CC(C)OC(=O)c1c(NC(=O)NCc2c(-n3cccc3)sc3c2CCNC3)sc2c1CCCC2` [Compound 141], the EC50 is less than 100 nM.

The compound `CCN1CCc2c(sc(-n3cccc3)c2CNC(=O)Nc2sc3c(c2C(=O)OC(C)(C)C)CCC(C)C3)C1` (centres unmarked) [Compound 211] showed an EC50 of less than 100 nM.

Take `Cc1sc(NC(=O)NCc2c(-c3cccc(Cl)c3)sc3c2CCNC3)c(C(=O)OC2CCOC2)c1C` (centres unmarked) [Compound 357]: the EC50 lay within 100 to 1000 nM.

`CCOC(=O)c1c(NC(=O)NCc2c(C)sc3c2CCNC3)sc2c1CCCC2` [Compound 107] gave an EC50 of less than 100 nM.

As for `CCOC(=O)c1c(NC(=O)NCc2c(Br)sc3c2CCNC3)sc2c1C(C)CCC2` (centres unmarked) [Compound 164], the concentration for a half-maximal effect (EC50) is less than 100 nM.

Compound `Cc1sc(NC(=O)NCc2c(-c3ccc(F)cc3)sc3c2CCNC3)c(C(=O)OC(C)(C)C)c1C` [Compound 368] displayed an EC50 of 100 to 1000 nM.

As to `CC(C)(C)OC(=O)c1c(NC(=O)NCc2c(C(F)(F)F)sc3c2CCN(CCO)C3)sc2c1CCCC2` [Compound 373], the 50% effective concentration (EC50) was less than 100 nM.

`CC(C)OC(=O)c1c(NC(=O)NCc2c(-c3ccccc3)sc3c2CCNC3)sc2c1CCCC2` [Compound 226] displayed an EC50 of less than 100 nM.

Compound `Cc1nnc(-c2c(NC(=O)NCc3c(-n4cccc4)sc4c3CCNC4)sc(C)c2C)o1` [Compound 72] had an EC50 of 100 to 1000 nM.

`CC(C)OC(=O)c1c(NC(=O)NCc2c(Br)sc3c2CCN(C)C3)sc2c1CCCC2` [Compound 172] came in with an EC50 of less than 100 nM.

With `CC(C)(C)OC(=O)c1c(NC(=O)NCc2c(-c3ccsc3)sc3c2CCNC3)sc2c1CCCC2` [Compound 203], the EC50 is less than 100 nM.

`CC(C)(C)OC(=O)c1c(NC(=O)NCc2c(-n3cccc3)sc3c2CCNC3)sc2c1CCCC2` [Compound 106] had an EC50 of less than 100 nM.

For `CCN1CCc2c(sc(C(F)(F)F)c2CNC(=O)Nc2sc3c(c2C(=O)OC(C)(C)C)CCCC3)C1` [Compound 119], the EC50 was less than 100 nM.

In turn, `CCN1CCc2c(sc(-n3cccc3)c2CNC(=O)Nc2sc3c(c2C(=O)OC(C)(C)C)CCCC3)C1` [Compound 14] registered an EC50 of less than 100 nM.

`Cc1sc(NC(=O)NCc2c(-n3cccc3)sc3c2CCNC3)c(C(=O)OC(C)C)c1C` [Compound 215] returned an EC50 of less than 100 nM.

Compound `CC(C)(C)OC(=O)c1c(NC(=O)NCc2c(-c3ccc(C(=O)O)cc3)sc3c2CCNC3)sc2c1CCCC2` [Compound 257] displayed an EC50 of 1000 to 10000 nM.

In the case of `CCN1CCc2c(sc(-n3cccc3)c2CNC(=O)Nc2sc3c(c2C#N)CCCC3)C1` [Compound 5], the EC50 was more than 10000 nM.

In the case of `CCOC(=O)c1c(NC(=O)C(=O)NCc2c(-n3cccc3)sc3c2CCN(CC)C3)sc2c1CCCC2` [Compound 78], the EC50 is less than 100 nM.

Compound `Cc1nnc(-c2c(NC(=O)NCc3c(-n4cccc4)sc4c3CCN(C)C4)sc(C)c2C)o1` [Compound 74] yielded an EC50 of less than 100 nM.

`Cc1sc(NC(=O)NCc2c(-c3cccc(F)c3)sc3c2CCN(CCN(C)C)C3)c(C(=O)OC(C)(C)C)c1C` [Compound 366] yielded an EC50 of less than 100 nM.

Regarding `COC(=O)c1c(NC(=O)NCc2c(Br)sc3c2CC[N+](C)(C)C3)sc2c1CCCC2` [Compound 176], the EC50 is less than 100 nM.

`C=CCCOC(=O)c1c(NC(=O)NCc2c(-n3cccc3)sc3c2CCNC3)sc2c1CCCC2` [Compound 276]: the EC50 was less than 100 nM.

In the case of `Cc1nnc(-c2c(NC(=O)NCc3c(-n4cccc4)sc4c3CCN(C)C4)sc3c2CCCC3)o1` [Compound 65], the EC50 is less than 100 nM.

For the compound `CC(C)(C)OC(=O)c1c(NC(=O)NCc2c(-n3cccc3)sc3c2CCNC3)sc2c1CCOC2` [Compound 319], the EC50 is less than 100 nM.

For the compound `CC(C)(C)OC(=O)c1c(NC(=O)NCc2c(-c3ccco3)sc3c2CCNC3)sc2c1CCCC2` [Compound 340], the EC50 is less than 100 nM.
